Earlier results, collected in patent US7251609B1, “Method for conducting clinical trials over the internet” (The Trustees of Boston University, priority 1999, dated 2007).

Test system: patients with knee OA

## Cl.N[C@H]1C(O)O[C@H](CO)[C@@H](O)[C@@H]1O (stereo partly drawn) [glucosamine hydrochloride]
94 patients with knee OA
  major adverse events: No major adverse events
94 patients with knee OA, identical rate in glucosamine and placebo groups
  rate of minor adverse symptoms: 12%
Study of Houpt et al, knee OA
  efficacy: only modest efficacy
